Assay results from US20240382476A1, “ANDROGEN RECEPTOR BIOMARKERS FOR CANCER THERAPY” (priority 2021, published 2024).

What was measured:
[1] = tested on: 22RV1 (AR+) prostate tumors; assay: Antitumor activity in mice bearing subcutaneously xenografted 22RV1 prostate tumors; assay type: in vivo, nude mice; conditions: 22RV1 (AR+) s.c. xenograft; 21-days s.c. continuous infusion by osmotic pump
Description: (§1) Animal Models. Five or six-week old male nude mice were purchased from SPF Biotechnology Co., Ltd. (Beijing, China). The prostate tumor cell suspensions (PC-3 or 22RV1) were grafted subcutaneously into the flank of nude mice at a concentration of 3×10^6 cells/mouse. Eight mice whose tumor volumes length×width^2×0.5 (length×width^2×0.5) reached approximately 100 mm^3 were divided into groups. For 21-days subcutaneous (s.c.) continuous infusion, an osmotic pump containing YM155 was implanted in the dorsum of each animal. Body weight and tumor diameter were measured every 3-4 days. The results are shown in FIG. 6A (AR^−) and 6B (AR^+). Anti-tumor activities are expressed as percent inhibition of tumor growth. The percent inhibition of tumor growth on day 21/28 was calculated using following formula: Mean % Inhibition=(mean (Control)−mean (YM155))/mean (Control)*100%. The treatment was started at day 0; vertical bars, SEM.

[2] = tested on: AR− and AR+ prostate carcinoma cells (PC-3, DU145, 22Rv1, LNCaP, VcaP, LNCaP clone FGC); assay: Cell treatment and proliferation assay with high content imaging; assay type: cell-based, human; conditions: 6.25-100 nM for 72 hrs (FIG. 2); 10 nM for 2-72 hrs (FIGS. 3A-3B)
Experimental: Cell Treatment and proliferation assay. PC-3 and DU145 cells were seeded in 96-well plates (Corning, USA) at 2000 cells/well; LNCaP, VcaP, and LNCaP clone FGC cells were seeded at 5000 cells/well; and 22Rv1 cells were seeded at 3000 cells/well. Cells were treated with 10 nM YM155 or 0.1% DMSO (VWR, USA) for different times (2, 6, 24, 48, and 72 hrs). DU145 cells were also treated with YM155 (10 nM) in further combination with etoposide (0.2 ∪M)+carboplatin (2 ∪M), etoposide (0.2 ∪M)+cisplatin (2 μM), or docetaxel (0.005 μM)+carboplatin (2 μM). At indicated times, cells were fixed with Formaldehyde (final concentration at 4 or 5%; Thermo, USA) for 30-40 minutes at room temperature. The cells were washed three times with PBS (Cellmax, China), then blocked and permeabilized with 3% BSA (Sigma, USA) in 0.5% Triton X-100 (Sigma, USA) for 2 hrs at room temperature. After discarding the supernatant, the cells were incubated with DAPI (Beyotime, China) for 10 minutes at room temperature, then washed again three times with PBS. The cells were kept in PBS and protected from light throughout experiments. The treated cells were scanned for image acquisition with CellInsight™ CX5 High-Content Screening (HSC) Platform (Thermo Fisher), equipped with filters for DAPI (Ex: 386 nm).
PC-3, DU145, 22Rv1, LNCaP, VcaP, and LNCaP clone FGC cells were seeded in 96-well plates at 2000 cells/well. […]

[3] = tested on: PC-3 (AR−) prostate tumors; assay: Antitumor activity in mice bearing subcutaneously xenografted PC-3 prostate tumors; assay type: in vivo, nude mice; conditions: PC-3 (AR−) s.c. xenograft, 21-days s.c. continuous infusion by osmotic pump
Description: as §1

Question: With “1-(2-Methoxyethyl)-2-methyl-4,9-dioxo-3-(pyrazin-2-ylmethyl)-4,9-dihydro-1H-naphtho [2,3-d] imidazolium bromide [YM155]” as the substance, how does the “activity towards tumor growth relative to control” value [1] read?
Answer: no significant difference

Question: And the “sensitivity of AR− versus AR+ prostate carcinoma cells to treatment (total cell count)” value [2]?
Answer: more sensitive

Question: What about the “percent inhibition of tumor growth relative to control” value ([3]; day 21) of the same substance?
Answer: 89.62%

Question: What about the “percent inhibition of tumor growth relative to control” value ([3]; day 28) of the same substance?
Answer: 93.63%
